Test results: US12478624B2, “Heterocyclic derivatives, pharmaceutical compositions and their use in the treatment or amelioration of cancer” (Tolremo Therapeutics AG, priority 2019, dated 2025)

How the values were obtained:
[1] = test system: A375 cells; experiment: Assay 1: A375 cells treated with S1152, S1008 and compound, immunofluorescence (sc-365823) signal; assay type: cell-based; conditions: 1 μM S1152 + 0.5 μM S1008, one day
Procedure, shortened: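 A375 cells treated one day with 1 μM S1152, 0.5 μM S1008 and compound dose ranges in DMEM/10% FCS, then fixed, permeabilised and immunostained. Green signal normalised to nuclear counterstain (ethidium-type or DAPI), log ratio fitted by four-parameter regression for EC50.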

[2] = test system: OPM-2; experiment: Assay 2: multiple myeloma cellular efficacy, PrestoBlue cell proliferation/survival; assay type: cell-based; conditions: Homo sapiens, 96 h, OPM-2 cells, 4 days
Protocol: Multiple Myeloma Cellular Efficacy:
10000 OPM-2 (ACC50; DSMZ) were plated into wells of a 384 well plate (Greiner 781090). Cells were treated for 4 days with a dose range of compound or vehicle. At the end of the experiment cells were stained directly with PrestoBlue (ThermoFisher Scietific; A13262) for 2 hours at 37° C. in a humidified incubator according to manufactor's instruction. To assess the relative cell number the PrestoBlue signal was measured using either a TecanM1000Pro reader or a Tecan Sparks reader following the manufactor's instructions. Background (no cells) values were subtracted and set in relation to the vehicle control. To assess the EC50 of each compound the relative fluorescence value was plotted against the compound concentration after log transformation. Data were fitted in a nonlinear manner with a variable slope (four parameters) using graphpad prism software. Cellular efficacy of compounds was evaluated in the multiple myeloma cell line OPM-2 using the cell proliferation/survival assay PrestoBlue. EC50 values are classified as indicated below.

| Structure (SMILES) | EC50 [1] | EC50 [2] |
| --- | --- | --- |
| CC(=O)Nc1cccc(Nc2cc(-c3cccnc3)nc([C@@H]3CC[C@H](C)N(C(C)=O)C3)n2)n1 [Compound 00148, N-(6-((2-((3R,6S)-1-acetyl-6-methylpiperidin-3-yl)-6-(pyridin-3-yl)pyrimidin-4-yl)amino)pyridin-2-yl)acetamide] | < 200 nM | < 200 nM |
| CC(=O)N1C[C@H](c2nc(Nc3ccnc(C)c3)cc(-c3cncc4c3cnn4C)n2)CC[C@@H]1C [Compound 00112, 1-((2S,5R)-2-methyl-5-(4-(1-methyl-1/7-pyrazolo[3,4-c]pyridin-4-yl)-6-((2-methylpyridin-4-yl)amino)pyrimidin-2-yl)piperidin-1-yl)ethan-1-one] | < 200 nM | < 200 nM |
| CC(=O)N1C[C@H](c2nc(Nc3ccnc(C)c3)cc(-c3cncc(N4C[C@@H]5C[C@H]4CO5)c3)n2)CC[C@@H]1C [Compound 00115, 1-((2S,5R)-5-(4-(5-((1S,4S)-2-oxa-5-azabicyclo[2.2.1]heptan-5-yl)pyridin-3-yl)-6-((2-methylpyridin-4-yl)amino)pyrimidin-2-yl)-2-methylpiperidin-1-yl)ethan-1-one] | < 200 nM | 200 to 1000 nM |
| CC(=O)N1C[C@H](c2nc(Nc3cc(C)nc(-c4cnn(C)c4)c3)cc(-c3cnccn3)n2)CC[C@@H]1C [Compound 00154, 1-((2S,5R)-2-methyl-5-(4-((2-methyl-6-(1-methyl-1H-pyrazol-4-yl)pyridin-4-yl)amino)-6-(pyrazin2-yl)pyrimidin-2-yl)piperidin-1-yl)ethan-1-one] | < 200 nM | 200 to 1000 nM |
| CC(=O)N1C[C@H](c2nc(Nc3ccnc(-c4cnn(C5CC5)c4)c3)cc(-c3cccnc3)n2)CC[C@@H]1C [Compound 00157, 1-((2S,5R)-5-(4-((2-(1-cyclopropyl-1H-pyrazol-4-yl)pyridin-4-yl)amino)-6-(pyridin-3-yl)pyrimidin-2-yl)-2-methylpiperidin-1-yl)ethan-1-one] | < 200 nM | < 200 nM |
| CCn1cc(-c2cc(Nc3cc(-c4cccnc4)nc([C@@H]4CC[C@H](C)N(C(C)=O)C4)n3)ccn2)cn1 [Compound 00158, 1-((2S-5R)-5-(4-((2-(1-ethyl-1H-pyrazol-4-yl)pyridin-4-yl)amino)-6-(pyridin-3-yl)pyrimidin-2-yl)-2-methylpiperidin-1-yl)ethan-1-one] | < 200 nM | < 200 nM |
| CC(=O)N1C[C@H](c2nc(Nc3ccnc(OC(C)C)c3)cc(-c3cnccn3)n2)CC[C@@H]1C [Compound 00155, 1-((2S,5R)-5-(4-((2-isopropoxypyridin-4-yl)amino)-6-(pyrazin-2-yl)pyrimidin-2-yl)-2-methylpiperidin-1-yl)ethan-1-one] | 200 to 1000 nM | 200 to 1000 nM |
| CC(=O)N1C[C@H](c2nc(Nc3cccc(-n4cncn4)c3)cc(-c3cccnc3)n2)CC[C@@H]1C [Compound 00078, 1-((2S,5R)-5-(4-((3-(1H-1,2,4-triazol-1-yl)phenyl)amino)-6-(pyridin-3-yl)pyrimidin-2-yl)-2-methylpiperidin-1-yl)ethan-1-one] | < 200 nM | < 200 nM |
| COCCn1cc(-c2cc(Nc3cc(-c4cccnc4)nc([C@@H]4CC[C@H](C)N(C(C)=O)C4)n3)ccn2)cn1 [Compound 00160, 1-((2S,5R)-5-(4-((2-(1-(2-methoxyethyl)-1H-pyrazol-4-yl)pyridin-4-yl)amino)-6-(pyridin-3-yl)pyrimidin-2-yl)-2-methylpiperidin-1-yl)ethan-1-one] | 200 to 1000 nM | 200 to 1000 nM |
| COc1cc(F)cc(Nc2cc(-c3cnccn3)nc([C@@H]3CC[C@H](C)N(C(C)=O)C3)n2)c1 [Compound 00067, 1-((2S,5R)-5-(4-((3-fluoro-5-methoxyphenyl)amino)-6-(pyrazin-2-yl)pyrimidin-2-yl)-2-methylpiperidin-1-yl)ethan-1-one] | < 200 nM | < 200 nM |
| CC(=O)N1C[C@H](c2nc(Nc3ccnc(C)c3)cc(-c3cc(C)cs3)n2)CC[C@@H]1C [Compound 00105, 1-((2S,5R)-2-methyl-5-(4-((2-methylpyridin-4-yl)amino)-6-(4-methylthiophen-2-yl)pyrimidin-2-yl)piperidin-1-yl)ethan-1-one] | < 200 nM | 200 to 1000 nM |
| CC(=O)N1C[C@H](c2nc(Nc3ccnc(C)c3)cc(-c3cncc(N4CC(C(=O)N(C)C)C4)c3)n2)CC[C@@H]1C [Compound 00113, 1-(5-(2-((3R,6S)-1-acetyl-6-methylpiperidin-3-yl)-6-((2-methylpyridin-4-yl)amino)pyrimidin-4-yl)pyridin-3-yl)-N,N-dimethylazetidine-3-carboxamide] | 1000 to 10000 nM | 1000 to 10000 nM |
| COCC(=O)Nc1cccc(Nc2cc(-c3cccnc3)nc([C@@H]3CC[C@H](C)N(C(C)=O)C3)n2)c1 [Compound 00084, N-(3-((2-((3R,6S)-1-acetyl-6-methylpiperidin-3-yl)-6-(pyridin-3-yl)pyrimidin-4-yl)amino)phenyl)-2-methoxyacetamide] | < 200 nM | 200 to 1000 nM |
| COCCOc1cncc(-c2cc(Nc3cc(F)cc(-c4cnn(C)c4)c3)nc([C@@H]3CC[C@H](C)N(C(C)=O)C3)n2)c1 [Compound 00091, 1-((2S,5R)-5-(4-((3-fluoro-5-(1-methyl-1H-pyrazol-4-yl)phenyl)amino)-6-(5-(2-methoxyethoxy)pyridin-3-yl)pyrimidin-2-yl)-2-methylpiperidin-1-yl)ethan-1-one] | < 200 nM | < 200 nM |
| CC(=O)Nc1cc(Nc2cc(-c3cnccn3)nc([C@@H]3CC[C@H](C)N(C(C)=O)C3)n2)ccn1 [Compound 00137, N-(4-((2-((3R,6S)-1-acetyl-6-methylpiperidin-3-yl)-6-(pyrazin-2-yl)pyrimidin-4-yl)amino)pyridin-2-yl)acetamide] | 200 to 1000 nM | 1000 to 10000 nM |
| CC(=O)N1C[C@H](c2nc(Nc3ccnc(C)c3)cc(-c3cnccn3)n2)CC[C@@H]1C [Compound 000126] | < 200 nM | < 200 nM |

Further lines, with some results ahead:

| EC50 [1] | Structure (SMILES) | EC50 [2] |
| --- | --- | --- |
| < 200 nM | CC(=O)N1C[C@H](c2nc(Nc3cc(C)nc(C(F)F)c3)cc(-c3cccnc3)n2)CC[C@@H]1C [Compound 00144, 1-((2S,5R)-5-(4-((2-(difluoromethyl)-6-methylpyridin-4-yl)amino)-6-(pyridin-3-yl)pyrimidin-2-yl)-2-methylpiperidin-1-yl)ethan-1-one] | < 200 nM |
| < 200 nM | CC(=O)Nc1cc(Nc2cc(-c3cnccn3)nc([C@@H]3CC[C@H](C)N(C(C)=O)C3)n2)cc(C(F)F)c1 [Compound 00059, N-(3-((2-((3R,6S)-1-acetyl-6-methylpiperidin-3-yl)-6-(pyrazin-2-yl)pyrimidin-4-yl)amino)-5-(difluoromethyl)phenyl)acetamide] | < 200 nM |
| < 200 nM | CC(=O)N1C[C@H](c2nc(Nc3cccc(-c4nnc(C)o4)c3)cc(-c3cccnc3)n2)CC[C@@H]1C [Compound 00142, 1-((2S,5R)-2-methyl-5-(4-((3-(5-methyl-1,3,4-oxadiazol-2-yl)phenyl)amino)-6-(pyridin-3-yl)pyrimidin-2-yl)piperidin-1-yl)ethan-1-one] | < 200 nM |
| < 200 nM | CC(=O)N1C[C@H](c2nc(Nc3cc(-c4cnn(C)c4)cc(C(F)F)c3)cc(-c3cccnc3)n2)CC[C@@H]1C [Compound 00057, 1-((2S,5R)-5-(4-((3-(difluoromethyl)-5-(1-methyl-1H-pyrazol-4-yl)phenyl)amino)-6-(pyridin-3-yl)pyrimidin-2-yl)-2-methylpiperidin-1-yl)ethan-1-one] | < 200 nM |
| < 200 nM | COc1cc(Nc2cc(-c3cccnc3)nc([C@@H]3CC[C@H](C)N(C(C)=O)C3)n2)cc(C)n1 [Compound 00140, 1-((2S,5R)-5-(4-((2-methoxy-6-methylpyridin-4-yl)amino)-6-(pyridin-3-yl)pyrimidin-2-yl)-2-methylpiperidin-1-yl)ethan-1-one] | < 200 nM |
| < 200 nM | CC(=O)N1C[C@H](c2nc(Nc3cncc(C)c3)cc(-c3cccnc3)n2)CC[C@@H]1C (racemic) [Compound 00096, (+/−)-cis-1-(2-methyl-5-(4-((5-methylpyridin-3-yl)amino)-6-(pyridin-3-yl)pyrimidin-2-yl)piperidin-1-yl)ethan-1-one] | 200 to 1000 nM |
| < 200 nM | CC(=O)Nc1cc(F)cc(Nc2cc(-c3cccnc3)nc([C@@H]3CC[C@H](C)N(C(C)=O)C3)n2)c1 [Compound 00047, N-(3-((2-((3R,6S)-1-acetyl-6-methylpiperidin-3-yl)-6-(pyridin-3-yl)pyrimidin-4-yl)amino)-5-fluorophenyl)acetamide] | < 200 nM |
| < 200 nM | CC(=O)N1C[C@H](c2nc(Nc3ccnc(C)c3)cc(-c3cccnc3)n2)CC[C@@H]1C [Compound 00095, 1-((2S,5R)-2-methyl-5-(4-((2-methylpyridin-4-yl)amino)-6-(pyridin-3-yl)pyrimidin-2-yl)piperidin-1-yl)ethan-1-one] | < 200 nM |
| < 200 nM | CC(=O)N1C[C@H](c2nc(Nc3cncc(C(F)(F)F)c3)cc(-c3cccnc3)n2)CC[C@@H]1C [Compound 00124, 1-((2S,5R)-2-methyl-5-(4-(pyridin-3-yl)-6-((5-(trifluoromethyl)pyridin-3-yl)amino)pyrimidin-2-yl)piperidin 1-yl)ethan-1-one] | 200 to 1000 nM |
